Measured values reported in US20240180878A1, “AMIDE DERIVATIVES OF BUTYRIC ACID FOR USE IN THE TREATMENT OR PREVENTION OF SARS-COV-2 INFECTION” (RHEA INNOVATIONS S.R.L., priority 2021, published 2024).

Tests used:
TNF-α [1] = experiment: Human enterocytes cell line (Caco-2), qRT-PCR gene expression; assay type: cell-based; conditions: Caco-2 cells, 2 mM FBA (maximal effective dose), 24 h of incubation
IL-15 [2] = experiment: as above; assay type: cell-based; conditions: Caco-2 cells, 2 mM FBA (maximal effective dose), 24 h of incubation
[3] = tested on: tumor necrosis factor-alpha (TNF-α); experiment: Small intestinal biopsy organ culture, qRT-PCR gene expression; assay type: cell-based; conditions: human small intestine biopsies, 2 mM FBA vs medium alone
ACE2 [4] = experiment: Human enterocytes cell line (Caco-2), qRT-PCR gene expression; assay type: cell-based; conditions: Caco-2 cells, 2 mM FBA (maximal effective dose), 24 h of incubation
CXCL1 = experiment: SARS-CoV-2 infection model in Caco-2 cells, gene expression; assay type: cell-based, human; conditions: Caco-2 pretreated with 2 mM FBA for 24 h, then 1 MOI wild-type SARS-CoV-2 for 72 h
Experimental: (§1) The SARS-CoV-2 infection was performed on Caco-2, at 15 days post-confluence, using SARS-CoV-2 wild-type strain. Before the infection, cells were incubated with 2 mM of FBA for 24 h at 37° C. 1 MOI of SARS-CoV-2 was added to the Caco-2 monolayer for 72 h. Then, SARS-CoV-2 inoculum was removed, the cells were washed three times with PBS 1× and were harvested for RNA, proteins extraction and for fluorescence microscopy analysis.
(§2) RNA samples were extracted, processed and analyzed as described above. Western blotting was performed on the total protein extracts of infected Caco-2 cells pretreated with FBA. For the total protein fraction, the harvested cells were washed in cold phosphate-buffered saline (PBS) and lysed in protein lysis buffer (RIPA). Protein concentrations in cell extracts were determined using the Bradford assay (BioRad, Milan, Italy). Thirty microgram total lysates were loaded onto 10% SDS-PAGE and then transferred to nitrocellulose membranes (ImmobilonR-Transfer Membrane, Tullagreen, Carrigtwohill, Co). The membranes were blocked with 5% non-fat milk in PBS, pH 7.6, 0.2% Tween 20 (PanReac AppliChem) and probed overnight at 4° C. with the specific primary antibodies for ACE2 (1:2000; Abcam). After washing in PBS, pH 7.6, 0.2% Tween 20, the membranes were incubated with a horseradish peroxidase-conjugated goat anti-rabbit antibody (1:2000; Abcam). The immunoblots were visualized using ECL detection kits, with enhanced chemiluminescence (Pierce, Rockford, IL, USA). A mouse β-actin antibody (1:5000; Elabscience) was used as the control for equal loading of total lysates.

TNF-α [5] = experiment: as above; assay type: cell-based, human; conditions: Caco-2 pretreated with 2 mM FBA for 24 h, then 1 MOI wild-type SARS-CoV-2 for 72 h
Experimental: as §1, §2

TMPRSS2 [6] = experiment: as above; assay type: cell-based, human; conditions: Caco-2 pretreated with 2 mM FBA for 24 h, then 1 MOI wild-type SARS-CoV-2 for 72 h
Experimental: as §1, §2

VEGFβ = experiment: as above; assay type: cell-based, human; conditions: Caco-2 pretreated with 2 mM FBA for 24 h, then 1 MOI wild-type SARS-CoV-2 for 72 h
Experimental: as §1, §2

MCP-1 [7] = experiment: as above; assay type: cell-based, human; conditions: Caco-2 pretreated with 2 mM FBA for 24 h, then 1 MOI wild-type SARS-CoV-2 for 72 h
Experimental: as §1, §2

MCP-1 [8] = experiment: Human enterocytes cell line (Caco-2), qRT-PCR gene expression; assay type: cell-based; conditions: Caco-2 cells, 2 mM FBA (maximal effective dose), 24 h of incubation
interleukin (IL)-15 = experiment: Small intestinal biopsy organ culture, qRT-PCR gene expression; assay type: cell-based; conditions: human small intestine biopsies, 2 mM FBA vs medium alone
MCP-1 [9] = experiment: Human respiratory epithelial cell line Calu3, qRT-PCR gene expression; assay type: cell-based; conditions: Calu3 cells, 2 mM FBA, 24 h of incubation
IL-1β = experiment: SARS-CoV-2 infection model in Caco-2 cells, gene expression; assay type: cell-based, human; conditions: Caco-2 pretreated with 2 mM FBA for 24 h, then 1 MOI wild-type SARS-CoV-2 for 72 h
ACE2 [10] = experiment: Small intestinal biopsy organ culture, qRT-PCR gene expression; assay type: cell-based; conditions: human small intestine biopsies, 2 mM FBA for 24 h vs medium alone
TNF-α [11] = experiment: Human respiratory epithelial cell line Calu3, qRT-PCR gene expression; assay type: cell-based; conditions: Calu3 cells, 2 mM FBA, 24 h of incubation
[12] = tested on: monocyte chemoattractant protein-1 (MCP-1); experiment: Small intestinal biopsy organ culture, qRT-PCR gene expression; assay type: cell-based; conditions: human small intestine biopsies, 2 mM FBA vs medium alone
TMPRSS2 [13] = experiment: Human enterocytes cell line (Caco-2), qRT-PCR gene expression; assay type: cell-based; conditions: Caco-2 cells, 2 mM FBA (maximal effective dose), 24 h of incubation
[14] = tested on: SARS-CoV-2 wild-type strain; assay type: cell-based; conditions: Caco-2 pretreated with 2 mM FBA for 24 h, then 1 MOI wild-type SARS-CoV-2 for 72 h
TMPRSS2 [15] = experiment: Small intestinal biopsy organ culture, qRT-PCR gene expression; assay type: cell-based; conditions: human small intestine biopsies, 2 mM FBA for 24 h vs medium alone
TMPRSS2 [16] = experiment: Human respiratory epithelial cell line Calu3, qRT-PCR gene expression; assay type: cell-based; conditions: Calu3 cells, 2 mM FBA, 24 h of incubation
ACE2 [17] = experiment: as above; assay type: cell-based; conditions: Calu3 cells, 2 mM FBA, 24 h of incubation
ACE2 [18] = experiment: SARS-CoV-2 infection model in Caco-2 cells, expression (qRT-PCR, Western blotting); assay type: cell-based, human; conditions: Caco-2 pretreated with 2 mM FBA for 24 h, then 1 MOI wild-type SARS-CoV-2 for 72 h
Experimental: as §1
RNA samples were extracted, processed and analyzed as described above. Western blotting was performed on the total protein extracts of infected Caco-2 cells pretreated with FBA. For the total protein fraction, the harvested cells were washed in cold phosphate-buffered saline (PBS) and lysed in protein lysis buffer (RIPA). Protein concentrations in cell extracts were determined using the Bradford assay (BioRad, Milan, Italy). Thirty microgram total lysates were loaded onto 10% SDS-PAGE and then transferred to nitrocellulose membranes (ImmobilonR-Transfer Membrane, Tullagreen, Carrigtwohill, Co). […]
Western blotting was performed on the total protein extracts of infected Caco-2 cells pretreated with FBA. […] Protein concentrations in cell extracts were determined using the Bradford assay (BioRad, Milan, Italy). […]

IL-15 [19] = experiment: Human respiratory epithelial cell line Calu3, qRT-PCR gene expression; assay type: cell-based; conditions: Calu3 cells, 2 mM FBA, 24 h of incubation

CCCC(=O)NC(Cc1ccccc1)C(N)=O (centres unmarked) [FBA, N-(1-carbamoyl-2-phenyl-ethyl) butyramide]
TNF-α expression (TNF-α [1]): significantly reduce
IL-15 expression (IL-15 [2]): significantly reduce
expression of TNF-α [3]: significant reduction
ACE2 expression (ACE2 [4]): significantly reduce
expression of CXCL1 (CXCL1): inhibit
expression of TNF-α (TNF-α [5]): inhibit
TMPRSS2 expression (TMPRSS2 [6]): inhibit
expression of VEGFβ (VEGFβ): inhibit
expression of MCP-1 (MCP-1 [7]): inhibit
MCP-1 expression (MCP-1 [8]): significantly reduce
expression of interleukin (IL)-15 (interleukin (IL)-15): significant reduction
expression of MCP-1 (MCP-1 [9]): downregulate
expression of IL-1β (IL-1β): inhibit
expression of ACE2 (ACE2 [10]): significantly decreased
expression of TNF-α (TNF-α [11]): downregulate
expression of MCP-1 [12]: significant reduction
TMPRSS2 expression (TMPRSS2 [13]): significantly reduce
virus entry [14]: inhibit
expression of TMPRSS2 (TMPRSS2 [15]): significantly decreased
expression of TMPRSS2 (TMPRSS2 [16]): downregulate
expression of ACE2 (ACE2 [17]): downregulate
ACE2 expression (ACE2 [18]): inhibit
expression of IL-15 (IL-15 [19]): downregulate
